Assay results reported in patent US4122202A, “Amino-3H-isobenzofuranones N-substitutes and their therapeutic application” (Societe Cortial, priority 1975, dated 1978).
Read-outs that look alike come from different tables or passages of the source.

Tests used:
mice [1] = experiment: Oral toxicity in mice (LDO, LD50); format: in vivo; conditions: gummy julep (No. 1 and 13 in Tween), 2 weeks observation
Protocol: (§1) This toxicity is estimated by the calculation of the lethal dose of 50 (LD 50) which determines the fatal dose of the substance for 50% of the animals tested. This determination was effected in accordance with a modification of the method by Litchfield and Wilcoxon (J. Pharmacol. Exp. Therap. 1949, 96, 99-113).
(§2) Swiss mice without specific pathogenic organisms were kept in air conditioned rooms 24 to 48 hours before the start of the tests. They were divided into batches of 5.male. and 5.female.. With the animals unfed for 24 hours, the substances were intragastically administered in suspension in 2% Tween 80 or in 6% gummy julep in a volume equivalent to 0.1 ml per 10 g of the weight of the animal.
(§3) They remained under observation for two weeks before being killed and subjected to an autopsy.
(§4) All products were administered in gummy julep except No. 1 and No. 13 which were administered in Tween. The analgesic activity were determined in mice by utilizing as a nociceptive agent, phenylbenzoquinone (PBQ) (modification of the method by Siegmund and co-workers Proc. Soc. Exp. Biol. Med. 1957, 95, 729-31). The process consists of seeking a possible protection for the mouse vis-a-vis abdominal twisting and stretching of the hind legs induced by the parental injection of PBQ. 25 minutes after having orally administered the products to be tested in suspension in 2% Tween 80 or in 6% gummy julep, the PBQ solution was injected and the mice were observed after 5 minutes during the following 5 minutes. For certain products, AD 50 is presented as a measure of activity.

[2] = Oral toxicity in mice (LDO, LD50); format: in vivo; conditions: mouse, in vivo; for LD50 at 336 h: gummy julep (No. 1 and 13 in Tween), 2 weeks observation
Protocol: as §1, §2, §3, §4

rats = experiment: Anti-inflammatory activity: carragenic test (carragenine-induced edema of the hind leg); format: in vivo, male rats; conditions: for ED50: oral
Protocol: All products were administered in gummy julep except No. 1 and No. 13 which were administered in suspension in Tween. The anti-inflammatory activity was determined by the carragenic test with male rats. Inflammation was induced by the injection of 0.1 ml of a 0.5% suspension of carragenine in a physiological serum into the muscular fasciculus of the metatarsal region of the hind leg of the animal. The substance to be tested was orally administered simultaneously with the carragenine. The edema was measured by phethysmography 1, 2, 3, 4, 5 and 6 hours after the administration of the carragenine.
**50 mg/kg No. 13 which were administered in suspension in Tween.

mice [3] = experiment: Analgesic activity: protection against abdominal twisting induced by phenylbenzoquinone (PBQ); format: in vivo; conditions: for ED50: Mus musculus, oral, read-out: AD 50 (the source's name)
Protocol: as §4, with “activity. […]” for “activity.”

[4] = Rattus norvegicus, 2H, read-out: ED 50
[5] = Rattus norvegicus, 4H, read-out: ED 50

| Molecule | LDO (maximum dose which did not lead to any mortality) (mice [1]) | LD50 at 336 h [2] | % activity (inhibition of edema) (rats; 200 mg/kg oral, 4H) | % activity (inhibition of edema) (rats; 400 mg/kg oral, 4H) | % activity (mice [3]; 200 mg/kg oral) | ED50 (mice [3]) | % activity (inhibition of edema) (rats; 150 mg/kg oral, 2H) | % activity (inhibition of edema) (rats; 150 mg/kg oral, 4H) | % activity (inhibition of edema) (rats; 300 mg/kg oral, 2H) | % activity (inhibition of edema) (rats; 300 mg/kg oral, 4H) | further results |
| --- | --- | --- | --- | --- | --- | --- | --- | --- | --- | --- | --- |
| CCCCC1(C)Oc2ccc(NC3OC(=O)c4ccccc43)cc2O1 (stereo not drawn) [Product 5] | > 2000 mg/kg | > 2000 mg/kg | 28% | 17% | 42% | 270 mg/kg | – | – | – | – | – |
| COc1ccc2c(c1OC)C(=O)OC2Nc1ccc2c(c1)OCO2 (stereo not drawn) [Product 8] | 750 to 1000 mg/kg | ~1000 mg/kg | 66% | 48% | 54% | 180 mg/kg | – | – | – | – | % activity (inhibition of edema) (rats; 200 mg/kg oral, 2H): 68%; % activity (inhibition of edema) (rats; 400 mg/kg oral, 2H): 74%; ED50 (rats; [4]): 180 mg/kg; ED50 (rats; [5]): 230 mg/kg |
| CCN(c1ccc2c(c1)OCO2)C1OC(=O)c2ccccc21 (stereo not drawn) [Product 12] | – | ~590 mg/kg | – | – | – | 45 mg/kg | – | – | – | – | % activity (inhibition of edema) (rats; 25 mg/kg (footnote *) oral, 2H): 33%; % activity (inhibition of edema) (rats; 25 mg/kg (footnote *) oral, 4H): 17%; % activity (inhibition of edema) (rats; 50 mg/kg oral, 2H): 43%; % activity (inhibition of edema) (rats; 50 mg/kg oral, 4H): 28%; % activity (mice [3]; 50 mg/kg oral): 61% |
| COc1ccc2c(c1OC)C(=O)OC2Nc1ccc2c(c1)OCCO2 (stereo not drawn) [Product 14] | > 2000 mg/kg | – | 33% | 63% | 73% | 150 mg/kg | – | – | – | – | % activity (inhibition of edema) (rats; 200 mg/kg oral, 2H): 63%; % activity (inhibition of edema) (rats; 400 mg/kg oral, 2H): 79%; ED50 (rats; [4]): 175 mg/kg; ED50 (rats; [5]): 260 mg/kg |
| N(2,2-dimethyl benzodioxol-1,3 yl-5) 3-amino 3H-isobenzofuranone-1 [Product 7] | – | – | – | 68% | 86% | – | 68% | 43% | – | – | % activity (inhibition of edema) (rats; 400 mg/kg oral, 2H): 72%; ED50 (rats; 2H): 75 mg/kg; ED50 (rats; 4H): 220 mg/kg |
| CC1(C)Oc2ccc(NC3OC(=O)c4ccccc43)cc2O1 (stereo not drawn) [Product 7] | ~ 1000 mg/kg | – | 20% | 25% | 81% | 80 mg/kg | – | – | – | – | mortality at 336 h ([2]; at 2000 mg/kg, read-out: deaths (LD50 column)): 70%; % activity (inhibition of edema) (rats; 200 mg/kg oral, 2H): 19%; % activity (inhibition of edema) (rats; 400 mg/kg oral, 2H): 23% |
| CCCC1(CCC)Oc2ccc(NC3OC(=O)c4ccccc43)cc2O1 (stereo not drawn) [Product 4] | – | ~2000 mg/kg | 23% | 13% | 20% | – | – | – | – | – | – |
| O=C(O)c1cc2c(cc1NC1OC(=O)c3ccccc31)OCO2 (stereo not drawn) [Product 15] | > 2000 mg/kg | – | – | – | 26% | – | 15% | 21% | 15% | 4% | – |
| CC(=O)OCC1COc2cc(NC3OC(=O)c4ccccc43)ccc2O1 (stereo not drawn) [Product 20] | > 2000 mg/kg | – | – | – | 13% | 550 mg/kg | 16% | 3% | 10% | 13% | – |
| Cc1cc(NC2OC(=O)c3ccccc32)c(C)c2c1OCOC2 (stereo not drawn) [Product 22] | > 2000 mg/kg | – | – | – | 38% | 260 mg/kg | 35% | 31% | – | – | – |
| O=C1OC(Nc2ccc3c(c2)OC2(CCCCC2)O3)c2ccccc21 (stereo not drawn) [Product 3] | 1000 to 2000 mg/kg | ≥ 2000 mg/kg | 20% | 21% | 29% | – | – | – | – | – | – |
| O=C1OC(Nc2ccc3c(c2)OCCO3)c2ccccc21 (stereo not drawn) [Product 13] | ≥ 1000 mg/kg | ≥ 3000 mg/kg | – | – | – | 100 mg/kg | 77% | 50% | 76% | 55% | ED50 (rats; [4]): 230 mg/kg; ED50 (rats; [5]): 210 mg/kg; % activity (mice [3]; 150 mg/kg oral): 73% |
| CC(=O)OCC1COc2ccc(NC3OC(=O)c4ccccc43)cc2O1 (stereo not drawn) [Product 19] | > 2000 mg/kg | – | – | – | – | 500 mg/kg | 21% | 23% | 26% | 27% | % activity (mice [3]; 300 mg/kg oral): 21% |
| O=C1OC(Nc2ccc3c(c2)COCO3)c2ccccc21 (stereo not drawn) [Product 21] | > 2000 mg/kg | – | – | – | 61% | 275 mg/kg | – | – | 44% | 43% | ED50 (rats; [4]): 400 mg/kg; ED50 (rats; [5]): 500 mg/kg |
| CCC1(CC)Oc2ccc(NC3OC(=O)c4ccccc43)cc2O1 (stereo not drawn) [Product 2] | ~ 1500 mg/kg | ~2000 mg/kg | – | 20% | 29% | – | – | – | – | – | – |
| COC(=O)c1cc2c(cc1NC1OC(=O)c3ccccc31)OCO2 (stereo not drawn) [Product 16] | > 2000 mg/kg | – | – | – | – | – | 12% | 10% | – | – | % activity (mice [3]; 100 mg/kg oral): 33% |
| O=C1OC(Nc2ccc3c(c2)OCC(CO)O3)c2ccccc21 (stereo not drawn) [Product 17] | > 2000 mg/kg | – | – | – | 28% | 420 mg/kg | 27% | 17% | 29% | 8% | – |
| O=C1OC(Nc2ccc3c(c2)OC(CO)CO3)c2ccccc21 (stereo not drawn) [Product 18] | > 2000 mg/kg | – | – | – | 44% | 260 mg/kg | 16% | 6% | 22% | 0% | – |
